{
  "source": "patent US20160074380A1",
  "about": "“Treatment Of Neurodegenerative Diseases With Combination Of Laquinimod And Fingolimod” (TEVA PHARMACEUTICAL INDUSTRIES LTD., priority 2014, published 2016)",
  "key": {"lymphocyte counts": {"test_system": "lymphocyte counts", "assay": "Lymphocyte counts over time with laquinimod versus placebo", "format": "in vivo", "settings": "laquinimod 0.6 mg group vs placebo or baseline, all visits"}, "[1]": {"assay": "Penetration of intact and disrupted Blood Brain Barrier", "format": "in vivo, mice", "settings": "for Kp: mouse, CNS tissue relative to blood, read-out: CNS tissue level, % of the blood concentration", "source_text": "In another study, laquinimod, as a small molecule, penetrated both intact and disrupted Blood Brain Barrier (BBB). In view of FIG. 17, CNS tissue level of laquinimod was 7-8% of the blood concentration in healthy mice and 13% in EAE mice when the BBB was disrupted. Further, 90% of the drug in cerebrospinal fluid (CSF) was active, or free, due to low protein binding and expected also in brain interstitial fluids. Thus, laquinimod targeted the entire brain and not only the lesions."}, "mouse microglia": {"test_system": "mouse microglia", "assay": "Mouse microglia TNF-α secretion upon LPS activation", "format": "cell-based", "source_text": "In another study, laquinimod reduced microglial activation in culture. The size of CD14 stained human microglia was increased with LPS activation. Also, in FIG. 13, human (C) or mouse (D) microglia elevated TNF-α secretion upon LPS activation, which was attenuated by laquinimod."}, "NF-κB pathway": {"test_system": "NF-κB pathway", "assay": "p65 translocation into the astrocyte nucleus in vivo"}, "oligodendrocytes": {"test_system": "oligodendrocytes", "assay": "Oligodendrocyte survival under inflammatory insults", "format": "cell-based"}, "cortical neurons": {"test_system": "cortical neurons", "assay": "Cortical neuron survival after 72 h with conditioned media from reactive astrocytes", "format": "cell-based, mice", "settings": "conditioned media 72 h; for % cell survival: % of control", "procedure": "Mice cortical neurons were cultured as described by Singer et al., 1999. Briefly pregnant female mice of 13 days gestation were killed by cervical dislocation (Mice Swiss; Janvier Lab). The foetuses were removed from the uterus. The cortexes were removed and placed in ice-cold medium of Leibovitz (L15, Panbiotech, ref: P04-27055, batch: 9310614) containing 2% of Penicillin 10.000 U/ml and Streptomycin 10 mg/ml (PS, Panbiotech, ref: P06-07100, batch: 8460514) and 1% of Bovine Serum Albumin (BSA, Panbiotech, Ref: P06-1391100, batch: H140603). Cortexes were dissociated by trypsin-EDTA (Panbiotech, Ref: P10-023100, batch: 3330914) for 20 min at 37° C. The reaction was stopped by the addition of Dulbecco's modified Eagle's Medium (DMEM, Panbiotech, Ref P04-03600, batch: 1300714) containing DNasel grade II (0.1 mg/ml, Panbiotech, ref: P60-37780100, batch: H140508) and 10% of Foetal Calf Serum (FCS, Invitrogen, ref: 10270-098, batch: 4103912K). Cells were then mechanically dissociated by 3 serial passages through a 10 ml pipette. Cells were then centrifuged at 515×g for 10 min at 4° C. The supernatant was discarded and the pellet of cells was re-suspended in a defined culture medium consisting of Neurobasal (Nb, Invitrogen, ref: 21103, batch: 1673148) supplemented with B27 (2%, Invitrogen, ref: 17504, batch: 1672731), L-glutamine (2 mM, Panbiotech, ref: P04-80100, batch: 6620314), 2% of PS solution and 10 ng/ml of Brain-derived neurotrophic factor (BDNF, PanBiotech, Ref: CB-1115002, Batch: 121027). Viable cells were counted in a Neubauer cytometer using the trypan blue exclusion test. The cells were seeded at a density of 30 000 cells/well in 96 well-plates pre-coated with poly-D-lysine (Greiner ref: 655930, batch: E140305F) and were cultured at +37° C. in a humidified air (95%)/CO2 (5%) atmosphere.\nMice mixed glial cells were cultured as described by McCarthy et al., 1980. Primary mice glial cells were prepared from the cortical of newborn Swiss mice (1 day). Briefly, meninges and blood vessels of the mice cortex were removed and placed in ice-cold medium of L15 containing 2% of PS and 1% of BSA. Tissues were dissociated with 0.25% trypsin-EDTA at 37° C. for 10 min. Cells were then submitted to a supplementary incubation of 15 min at 37° C. in presence of deoxyribonuclease I (final concentration of 0.5 mg/mL). Cells were then pelleted (5 min at 1200 rpm) and trypsinization was stopped by adding DMEM supplemented with 10% FCS, 1 mM of Na/pyruvate (PanBiotech, ref: P04-43100, batch: 3470914) and 2% PS. Cells suspension was mechanically dissociated and filtered through 40 μm diameter nylon meshes (BD Falcon, Ref: 352340). The cells were collected by centrifugation at 1200 rpm/min for 10 min, re-suspended in culture medium and then plated in culture flasks (Dutscher, ref: 690175). Cells were seeded at a density of 1.25×10^5 cells/cm2 and cultured in 5% CO2 at 37° C. Medium was changed three times per week.\nPurification of astrocytes cells was done as described by Kim et al., 2006. After 14 days, the flasks were shaken on a rotary shaker at 200 rpm for 3 h. The resulting cell suspension rich in microglia was removed. Cells remaining in the flasks from which microglia had been harvested correspond to astrocytes at a purity of about 90%. Astrocytes were cultured in DMEM supplemented with 10% FCS, 1 mM of Na/pyruvate and 2% at 5% CO2 and 37° C. in flasks of 25 cm2.\nWhen reaching confluence, primary astroglial cells were first incubated for 2 hours with Fingolimod (1 nM, 10 nM) or Laquinimod (1 nM, 10 nM, 100 nM, 1 μM, 10 μM) alone or in co-incubation or control medium.\nAt the end of 2 hours treatment with test compounds, astrocyte culture was activated with serum-free DMEM containing LPS (100 ng/mL; Sigma, Serotype 026:B6, ref: L2654; batch: 123M4052V) and IFNγ (10 ng/mL; Peprotech; ref: 315-05; batch: 061398 L0513) for 6 hours (Kim and Lee, 2013; Shu et al., 2014; Gresa-Arribas et al., 2012) in absence or presence of test compounds. […]"}, "lysolecithin model [2]": {"test_system": "lysolecithin model", "assay": "Lysolecithin-induced demyelination model", "format": "in vivo"}, "[3]": {"settings": "DA EAE rats, doses 0.03-0.3 mg/kg; Foster, 2007; cited from earlier work"}, "mouse primary microglia": {"test_system": "mouse primary microglia", "assay": "Pro-inflammatory cytokine production in mouse primary microglia", "format": "cell-based"}, "cuprizone model": {"test_system": "cuprizone model", "settings": "Slovic, 2012, Kim, 2011; cited from earlier work"}, "lysolecithin model [4]": {"test_system": "lysolecithin model", "settings": "Hu, 2011; cited from earlier work"}},
  "note": "Where two headings read alike, the source gives them in different places. Marks after values point to notes of the source that are not given here.",
  "data": [
    {"smiles": "CCN(C(=O)c1c(O)c2c(Cl)cccc2n(C)c1=O)c1ccccc1", "note": "[Laquinimod]", "values": [
      {"measurement": "lymphocyte counts", "setting": "lymphocyte counts", "value": "remained stable"},
      {"measurement": "active, or free, drug in cerebrospinal fluid (CSF)", "setting": "[1]; low protein binding", "value": 90, "unit": "%"},
      {"measurement": "Kp", "setting": "[1]; EAE mice, BBB disrupted", "value": 0.13},
      {"measurement": "Kp", "setting": "[1]; healthy mice", "value": "0.07 to 0.08"},
      {"measurement": "TNF-α secretion", "setting": "mouse microglia", "value": "attenuated"},
      {"measurement": "astrocyte activation (p65 translocation into the astrocyte nucleus)", "setting": "NF-κB pathway", "value": "significantly reduced astrocyte activation"},
      {"measurement": "oligodendrocyte survival", "setting": "oligodendrocytes", "value": "does not protect oligodendrocytes"},
      {"measurement": "% cell survival", "setting": "cortical neurons; 1 nM", "value": 73, "unit": "%"},
      {"measurement": "% cell death", "setting": "cortical neurons; 1 nM", "value": 27, "unit": "%"},
      {"measurement": "% inhibition of cortical neuron cell death", "setting": "cortical neurons; 1 nM", "value": "20.6* %"},
      {"measurement": "% cell survival", "setting": "cortical neurons; 10 nM", "value": 80, "unit": "%"},
      {"measurement": "% cell death", "setting": "cortical neurons; 10 nM", "value": 20, "unit": "%"},
      {"measurement": "% inhibition of cortical neuron cell death", "setting": "cortical neurons; 10 nM", "value": 41.2, "unit": "%"},
      {"measurement": "% cell survival", "setting": "cortical neurons; 100 nM", "value": 83, "unit": "%"},
      {"measurement": "% cell death", "setting": "cortical neurons; 100 nM", "value": 17, "unit": "%"},
      {"measurement": "% inhibition of cortical neuron cell death", "setting": "cortical neurons; 100 nM", "value": 50.0, "unit": "%"},
      {"measurement": "% cell survival", "setting": "cortical neurons; 1 μM", "value": 92, "unit": "%"},
      {"measurement": "% cell death", "setting": "cortical neurons; 1 μM", "value": 8, "unit": "%"},
      {"measurement": "% inhibition of cortical neuron cell death", "setting": "cortical neurons; 1 μM", "value": 76.5, "unit": "%"},
      {"measurement": "lysolecithin-induced demyelination", "setting": "lysolecithin model [2]", "value": "no effect"}
    ]},
    {"smiles": "CCCCCCCCc1ccc(CCC(N)(CO)CO)cc1", "note": "[Fingolimod]", "values": [
      {"measurement": "brain/blood ratio", "setting": "[3]", "value": "about 20"},
      {"measurement": "microglial production of pro-inflammatory cytokine", "setting": "mouse primary microglia", "value": "inhibited"},
      {"measurement": "re-myelination", "setting": "cuprizone model", "value": "not conclusive"},
      {"measurement": "re-myelination", "setting": "lysolecithin model [4]", "value": "lack of any effect"},
      {"measurement": "% cell survival", "setting": "cortical neurons; 1 nM", "value": 80, "unit": "%"},
      {"measurement": "% cell death", "setting": "cortical neurons; 1 nM", "value": 20, "unit": "%"},
      {"measurement": "% inhibition of cortical neuron cell death", "setting": "cortical neurons; 1 nM", "value": 41.2, "unit": "%"},
      {"measurement": "% cell survival", "setting": "cortical neurons; 10 nM", "value": 85, "unit": "%"},
      {"measurement": "% cell death", "setting": "cortical neurons; 10 nM", "value": 15, "unit": "%"},
      {"measurement": "% inhibition of cortical neuron cell death", "setting": "cortical neurons; 10 nM", "value": "55.9* %"}
    ]}
  ]
}
